Test system: hepatocytes
Assay: RNA-seq of hepatocytes treated with Phase III failure compounds
Conditions: for significant modulation of expression of any of the genes analyzed: p≤0.05
Method: RNA-seq was performed to determine the effects of the compounds on hepatocytes.
Significance was determined by the criteria of FPKM≥0.5, a log 2(fold-change)≥1, and a […].

NC(=O)c1ccc(I)c([N+](=O)[O-])c1 [BSI-201]
RNA-seq results, CYP2B6 expression: 0.07
RNA-seq results, CYP2C19 expression: 0.30
RNA-seq results, CYP2D6 expression: −0.15
RNA-seq results, CYP3A4 expression: −0.46
RNA-seq results, CYP7B1 expression: 0.03
RNA-seq results, CYP39A1 expression: −0.20
RNA-seq results: CYP2B6 expression: 0.48
RNA-seq results: CYP2C19 expression: 0.24
RNA-seq results: CYP2D6 expression: 0.11
RNA-seq results: CYP3A4 expression: 3.12
RNA-seq results: CYP7B1 expression: 0.05
RNA-seq results: CYP39A1 expression: 0.43
significant modulation of expression of disease genes (RNA-seq, q≤0.05, hepatocytes, genes in the value or listed in the block): significantly (q≤0.05) modulate expression of RMRP
RNA-seq results: A1BG expression (gene A1BG, hepatocytes): −0.21
RNA-seq results: AGTR1 expression (gene AGTR1, hepatocytes): −0.22
RNA-seq results: AGXT expression (gene AGXT, hepatocytes): −0.06
RNA-seq results: AHI1 expression (gene AHI1, hepatocytes): 0.33
RNA-seq results: AMPD3 expression (gene AMPD3, hepatocytes): 0.19
RNA-seq results: AMT expression (gene AMT, hepatocytes): −0.04
RNA-seq results: ANGPTL3 expression (gene ANGPTL3, hepatocytes): −0.14
RNA-seq results: ANKS4B expression (gene ANKS4B, hepatocytes): −0.24
RNA-seq results: ANKS6 expression (gene ANKS6, hepatocytes): 0.04
RNA-seq results: ANPEP expression (gene ANPEP, hepatocytes): −0.09
RNA-seq results: AOC2 expression (gene AOC2, hepatocytes): 0.36
RNA-seq results: APOA2 expression (gene APOA2, hepatocytes): −0.52
RNA-seq results: APOA5 expression (gene APOA5, hepatocytes): −0.17
RNA-seq results: APOB expression (gene APOB, hepatocytes): 0.03
RNA-seq results: COG5 expression (gene COG5, hepatocytes): −0.06
RNA-seq results: COG6 expression (gene COG6, hepatocytes): −0.01
RNA-seq results: COL1A1 expression (gene COL1A1, hepatocytes): −0.34
RNA-seq results: COX6A1 expression (gene COX6A1, hepatocytes): −0.13
RNA-seq results: CP expression (gene CP, hepatocytes): 0.11
RNA-seq results: CPS1 expression (gene CPS1, hepatocytes): 0.09
RNA-seq results: CPT1A expression (gene CPT1A, hepatocytes): −0.18
RNA-seq results: CPT2 expression (gene CPT2, hepatocytes): 0.10
RNA-seq results: CROT expression (gene CROT, hepatocytes): −0.04
RNA-seq results: CSPP1 expression (gene CSPP1, hepatocytes): −0.07
RNA-seq results: CTC1 expression (gene CTC1, hepatocytes): −0.08
RNA-seq results: CTDSP2 expression (gene CTDSP2, hepatocytes): 0.10
RNA-seq results: CTH expression (gene CTH, hepatocytes): 0.23
RNA-seq results: CTNS expression (gene CTNS, hepatocytes): 0.08
RNA-seq results: CTSF expression (gene CTSF, hepatocytes): 0.10
RNA-seq results: CTSK expression (gene CTSK, hepatocytes): −0.15
RNA-seq results: CYB5A expression (gene CYB5A, hepatocytes): 0.73
RNA-seq results: CYB5R3 expression (gene CYB5R3, hepatocytes): 0.04
RNA-seq results: CYP27A1 expression (gene CYP27A1, hepatocytes): 0.04
RNA-seq results: DAO expression (gene DAO, hepatocytes): −0.04
RNA-seq results: DBT expression (gene DBT, hepatocytes): 0.04
RNA-seq results: DCDC2 expression (gene DCDC2, hepatocytes): 0.01
RNA-seq results: DCXR expression (gene DCXR, hepatocytes): −0.01
RNA-seq results: FABP1 expression (gene FABP1, hepatocytes): −0.25
RNA-seq results: FADD expression (gene FADD, hepatocytes): −0.08
RNA-seq results: FAM111A expression (gene FAM111A, hepatocytes): 0.07
RNA-seq results: FAM111B expression (gene FAM111B, hepatocytes): 0.03
RNA-seq results: FAN1 expression (gene FAN1, hepatocytes): 0.05
RNA-seq results: FARS2 expression (gene FARS2, hepatocytes): −0.14
RNA-seq results: FASLG expression (gene FASLG, hepatocytes): −0.21
RNA-seq results: FGA expression (gene FGA, hepatocytes): 0.16
RNA-seq results: FGD1 expression (gene FGD1, hepatocytes): −0.07
RNA-seq results: FGFR2 expression (gene FGFR2, hepatocytes): 0.07
RNA-seq results: FIG4 expression (gene FIG4, hepatocytes): −0.12
RNA-seq results: FIS1 expression (gene FIS1, hepatocytes): −0.06
RNA-seq results: FTCD expression (gene FTCD, hepatocytes): 0.31
RNA-seq results: FTH1 expression (gene FTH1, hepatocytes): 0.06
RNA-seq results: FUCA1 expression (gene FUCA1, hepatocytes): −0.11
RNA-seq results: FXN expression (gene FXN, hepatocytes): 0.23
RNA-seq results: G6PC3 expression (gene G6PC3, hepatocytes): 0.02
RNA-seq results: G6PC expression (gene G6PC, hepatocytes): 0.12
RNA-seq results: G6PD expression (gene G6PD, hepatocytes): 0.13
RNA-seq results: GALK1 expression (gene GALK1, hepatocytes): −0.03
RNA-seq results: GALK2 expression (gene GALK2, hepatocytes): 0.00
RNA-seq results: GALT expression (gene GALT, hepatocytes): 0.01
RNA-seq results: GATA6 expression (gene GATA6, hepatocytes): −0.07
RNA-seq results: GATM expression (gene GATM, hepatocytes): −0.15
RNA-seq results: GBA expression (gene GBA, hepatocytes): 0.02
RNA-seq results: GBE1 expression (gene GBE1, hepatocytes): −0.15
RNA-seq results: GCH1 expression (gene GCH1, hepatocytes): −0.06
RNA-seq results: GCKR expression (gene GCKR, hepatocytes): 0.23
RNA-seq results: GCLC expression (gene GCLC, hepatocytes): −0.04
RNA-seq results: GOSH expression (gene GOSH, hepatocytes): 0.46
RNA-seq results: RRM2B (gene RRM2B, hepatocytes): −0.28
RNA-seq results: RSAD1 (gene RSAD1, hepatocytes): −0.02
RNA-seq results: SAMHD1 (gene SAMHD1, hepatocytes): −0.24
RNA-seq results: SC5D (gene SC5D, hepatocytes): −0.29
RNA-seq results: SCARB1 (gene SCARB1, hepatocytes): −0.03
RNA-seq results: SCN9A (gene SCN9A, hepatocytes): 0.10
RNA-seq results: SDCCAG8 (gene SDCCAG8, hepatocytes): −0.06
RNA-seq results: SEPN1 (gene SEPN1, hepatocytes): −0.11
RNA-seq results: SERAC1 (gene SERAC1, hepatocytes): −0.22
RNA-seq results: SERPINA1 (gene SERPINA1, hepatocytes): −0.17
RNA-seq results: SERPING1 (gene SERPING1, hepatocytes): −0.16
RNA-seq results: SERPINI1 (gene SERPINI1, hepatocytes): −0.41
RNA-seq results: SETBP1 (gene SETBP1, hepatocytes): 0.06
RNA-seq results: SFXN4 (gene SFXN4, hepatocytes): −0.19
RNA-seq results: SLC10A1 (gene SLC10A1, hepatocytes): −0.31
RNA-seq results: SLC10A3 (gene SLC10A3, hepatocytes): 0.33
RNA-seq results: SLC10A5 (gene SLC10A5, hepatocytes): 0.19
RNA-seq results: SLC10A7 (gene SLC10A7, hepatocytes): −0.38
RNA-seq results: SLC11A2 (gene SLC11A2, hepatocytes): −0.02
RNA-seq results: SLC19A1 (gene SLC19A1, hepatocytes): 0.05
RNA-seq results: SLC19A2 (gene SLC19A2, hepatocytes): 0.00
RNA-seq results: SLC19A3 (gene SLC19A3, hepatocytes): −0.03
RNA-seq results: SLC22A1 (gene SLC22A1, hepatocytes): −0.32
RNA-seq results: SLC22A5 (gene SLC22A5, hepatocytes): 0.05
RNA-seq results: SLC25A1 (gene SLC25A1, hepatocytes): 0.08
RNA-seq results: SLC25A10 (gene SLC25A10, hepatocytes): −0.16
RNA-seq results: SLC25A12 (gene SLC25A12, hepatocytes): 0.23
RNA-seq results: SLC25A13 (gene SLC25A13, hepatocytes): −0.13
RNA-seq results: SLC25A15 (gene SLC25A15, hepatocytes): 0.02
RNA-seq results: SLC25A19 (gene SLC25A19, hepatocytes): −0.15
RNA-seq results: SLC25A20 (gene SLC25A20, hepatocytes): −0.16
RNA-seq results: SLC25A29 (gene SLC25A29, hepatocytes): 0.09
RNA-seq results: SLC25A32 (gene SLC25A32, hepatocytes): −0.05

CC1(C)CC[C@]2(C(=O)O)CC[C@]3(C)[C@H](C(=O)C=C4[C@@]5(C)C=C(C#N)C(=O)C(C)(C)[C@@H]5CC[C@]43C)[C@@H]2C1 [Bardoxolone]
significant modulation of expression of any of the genes analyzed (RNA-seq, hepatocytes): not observed to significantly modulate expression

C[C@H](Oc1ccc(S(C)(=O)=O)cc1C(=O)N1CCN(c2ncc(C(F)(F)F)cc2F)CC1)C(F)(F)F [Bitopertin]
significant changes in gene expression (RNA-seq of Table 36, FPKM≥0.5, log 2(fold-change)≥1, q-value≤0.05): not observed to cause any significant changes in gene expression
significant modulation of expression of any of the genes analyzed (RNA-seq, hepatocytes): not observed to significantly modulate expression
